Patent US12385839B2, “Use of protein in predicting drug properties” (priority 2021, dated 2025)
Where “and” joins values, the source holds several entries; their conditions need not be identical. Equal values may be shown once. Read-outs that look alike come from different tables or passages of the source.

Legend:
[1] = target: T1, human serum albumin (HSA) (Homo sapiens, UniProt P02768); assay: Fluorescence emission spectrum (quenching) of HSA with carbamate pesticides; type: binding; settings: for Kq / Ksv / n (number of binding sites) / Kd / Ka (binding constant): pH 7.4; for R (binding distance): Förster energy transfer; for fluorescence of HSA quenched by pesticide: titration of pesticide; for ΔH^0 / ΔS^0: Van't Hoff, 296-310 K
T1 sequence (P02768 25-609): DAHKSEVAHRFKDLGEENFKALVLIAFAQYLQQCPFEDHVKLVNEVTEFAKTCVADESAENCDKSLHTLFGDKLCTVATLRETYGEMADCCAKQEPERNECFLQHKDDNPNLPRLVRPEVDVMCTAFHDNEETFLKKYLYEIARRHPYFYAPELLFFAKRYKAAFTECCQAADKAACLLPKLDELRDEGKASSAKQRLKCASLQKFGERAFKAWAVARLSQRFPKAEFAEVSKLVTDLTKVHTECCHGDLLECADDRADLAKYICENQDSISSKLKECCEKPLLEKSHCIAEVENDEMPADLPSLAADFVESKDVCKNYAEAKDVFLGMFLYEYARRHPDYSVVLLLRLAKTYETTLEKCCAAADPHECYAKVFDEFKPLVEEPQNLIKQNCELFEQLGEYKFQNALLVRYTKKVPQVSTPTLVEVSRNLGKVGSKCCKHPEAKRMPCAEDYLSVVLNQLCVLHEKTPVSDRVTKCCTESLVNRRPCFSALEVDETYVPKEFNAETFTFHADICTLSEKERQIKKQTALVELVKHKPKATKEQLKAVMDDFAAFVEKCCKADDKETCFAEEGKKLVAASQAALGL
In short: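 Fluorescence quenching of HSA by carbamate pesticides was measured. HSA was held at 5×10^−7 M and pesticide was titrated from (0-105)×10^−7 M. Samples were preheated for 3 minutes, excited at 280 nm with 15 nm slits, and emission was recorded from 300-500 nm. Inner-filter effects were corrected. Binding site number n came from log[(F0−F)/F]=log Ka+nlog[Q].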

[2] = target: T1, human serum albumin (HSA); assay: Circular dichroism spectrum, secondary structure (α-helix content) of HSA; settings: HSA 2×10^−6 M
In short: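 CD spectra of HSA held at 2×10^−6 M with pesticide at (0-20)×10^−6 M, 1 mm path, after 2–5 min preheating. α-Helix content derived from mean residue ellipticity at 208 nm (585 residues).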

[3] = cited from earlier work; for LD50: modelling table; for Toxicity: toxicity grade by LD50, trailing figure = number of pesticides in group

Compound	Ksv (37°) ([1]; 37°, modelling table)	ΔG^0 ([1]; 296 K) [kcal/mol]	Kq ([1]; 296 K)	Ksv ([1]; 296 K)	n (number of binding sites) ([1]; 296 K)	ΔG^0 ([1]; 303 K) [kcal/mol]	Kq ([1]; 303 K)	Ksv ([1]; 303 K)	n (number of binding sites) ([1]; 303 K)	ΔG^0 ([1]; 310 K) [kcal/mol]	R (binding distance) ([1]; 310 K) [nm]	Kq ([1]; 310 K)	Ksv ([1]; 310 K)	n (number of binding sites) ([1]; 310 K)	fluorescence of HSA quenched by pesticide ([1]; 310 K)	ΔH^0 [1] [kcal/mol]	ΔS^0 [1] [J · mol^−1 · K^−1]	Number of binding sites/n ([1]; modelling table)	α-helix contents ([2]; 5:1 (Pesticide:HSA)) [%]	α-helix contents ([2]; 10:1 (Pesticide:HSA)) [%]	other results
CNC(=O)Oc1ccccc1OC(C)C [Propoxur, propoxur]	50525.98687	-4.1912	3.425 ± 0.132 10^12 M^−1s^−1	3.425 ± 0.132 10^4 M^−1	0.706 ± 0.014	-4.5607	4.353 ± 0.121 10^12 M^−1s^−1	4.353 ± 0.121 10^4 M^−1	0.729 ± 0.013	-4.93	3.138	5.053 ± 0.120 10^12 M^−1s^−1	5.053 ± 0.120 10^4 M^−1	0.757 ± 0.011	quenched	11.43	220.816	0.7565	50.121	49.341	ΔG(37°) ([1]; 37°, modelling table): −20.63; Kd ([1]; Ka (binding constant), 296 K): 794 µM; Kd ([1]; Ka (binding constant), 303 K): 527 µM; Kd ([1]; Ka (binding constant), 310 K): 330 µM; Binding distance/r ([1]; modelling table): 3.138; LD50 [3]: 41 mg/kg; Toxicity [3]: Highly
CNC(=O)ON=C(CSC)C(C)(C)C [Thiofanox, thiofanox]	58762.03726	-4.2899	3.871 ± 0.035 10^12 M^−1s^−1	3.871 ± 0.035 10^4 M^−1	0.714 ± 0.014	-4.5667	4.728 ± 0.064 10^12 M^−1s^−1	4.728 ± 0.064 10^4 M^−1	0.725 ± 0.005	-4.8435	1.883	5.876 ± 0.198 10^12 M^−1s^−1	5.876 ± 0.198 10^4 M^−1	0.730 ± 0.003	quenched	7.4152	165.452	0.7299	48.904	48.180	ΔG(37°) ([1]; 37°, modelling table): −20.27; Kd ([1]; Ka (binding constant), 296 K): 688 µM; Kd ([1]; Ka (binding constant), 303 K): 496 µM; Kd ([1]; Ka (binding constant), 310 K): 390 µM; Binding distance/r ([1]; modelling table): 1.883; LD50 [3]: 8.5 mg/kg; Toxicity [3]: Highly
CNC(=O)O/N=C(\CS(C)(=O)=O)C(C)(C)C [Thiofanox-sulfone, thiofanox sulfone]	55736.87796 and 53392.17364	-4.3031	3.906 ± 0.043 10^12 M^−1s^−1	3.906 ± 0.043 10^4 M^−1	0.719 ± 0.011	-4.9596	4.102 ± 0.034 10^12 M^−1s^−1	4.102 ± 0.034 10^4 M^−1	0.786 ± 0.008	-5.6159	2.907	5.574 ± 0.138 10^12 M^−1s^−1	5.574 ± 0.138 10^4 M^−1	0.848 ± 0.004	quenched	23.451	392.314	0.8476 and 0.7456	51.076	50.482	Ka (binding constant) ([1]; 296 K): (1.559 ± 0.162) × 10^3 M^−1; Ka (binding constant) ([1]; 303 K): (3.514 ± 0.247) × 10^3 M^−1; Ka (binding constant) ([1]; 310 K): (9.450 ± 0.597) × 10^3 M^−1; Toxicity [3]: Highly
CNC(=O)Oc1cc(C)cc(C)c1 [XMC, 3,5-xylyl methylcarbamate]	48304.67460	-4.4097	4.145 ± 0.187 10^12 M^−1s^−1	4.145 ± 0.187 10^4 M^−1	0.734 ± 0.005	-4.9309	4.362 ± 0.151 10^12 M^−1s^−1	4.362 ± 0.151 10^4 M^−1	0.779 ± 0.012	-5.4522	2.033	4.830 ± 0.108 10^12 M^−1s^−1	4.830 ± 0.108 10^4 M^−1	0.832 ± 0.006	quenched	17.634	311.582	0.8317	55.392	54.416	ΔG(37°) ([1]; 37°, modelling table): −22.81; Kd ([1]; 296 K, read-out: Ka (binding constant)): 539 µM; Kd ([1]; 303 K, read-out: Ka (binding constant)): 294 µM; Kd ([1]; 310 K, read-out: Ka (binding constant)): 139 µM; Binding distance/r ([1]; modelling table): 2.033; LD50 [3]: 245 mg/kg; Toxicity [3]: Moderately
Trimethacarb	47778.50539	-4.0289	3.043 ± 0.160 10^12 M^−1s^−1	3.043 ± 0.160 10^4 M^−1	0.694 ± 0.002	-4.3162	4.204 ± 0.100 10^12 M^−1s^−1	4.204 ± 0.100 10^4 M^−1	0.696 ± 0.005	-4.6037	2.954	4.778 ± 0.093 10^12 M^−1s^−1	4.778 ± 0.093 10^4 M^−1	0.713 ± 0.001	quenched	8.1233	171.775	0.713	52.233	48.283	Ka (37°) ([1]; 37°, modelling table): 1782; ΔG(37°) ([1]; 37°, modelling table): −19.26; Ka (binding constant) ([1]; 296 K): (9.546 ± 0.118) × 10^2 M^−1; Ka (binding constant) ([1]; 303 K): (1.268 ± 0.092) × 10^3 M^−1; Ka (binding constant) ([1]; 310 K): (1.782 ± 0.036) × 10^3 M^−1; Binding distance/r ([1]; modelling table): 2.954; LD50 [3]: 178 mg/kg; Toxicity [3]: Moderately
